Reference: patent publication US20110178104A1, “Anti-Heparin Compounds” (POLYMEDIX INC., priority 2010, published 2011)

Tests used:
[1] = system: unfractionated heparin (UFH); assay: aPTT clotting assay, UFH 0.2 U/mL in plasma (Example 7); format: biochemical; conditions: UFH 0.2 U/mL in plasma
Protocol: aPTT clotting Assay. Unfractionated heparin was mixed with plasma at a final concentration of 0.2 U/mL. […] The ACL Elite Hemostasis analyzer (Beckman Coulter™) was used to add aPTT reagent (HemosIL SynthASil) to supplemented plasma. Clotting was initiated by addition of CaCl2 and time to clot was recorded.

[2] = system: fondaparinux (FONDAPX); assay: FXa chromogenic assay (absence of plasma), fondaparinux; conditions: fondaparinux 0.02 μg/mL, absence of plasma
Protocol: Human antithrombin was mixed with an anticoagulant agent (a LMWH or fondaparinux); final concentrations were 0.22 μg/mL for the LMWHs and 0.07 μg/mL for fondaparinux. […] Absorbance was read every 30 seconds over a 4 minute period in a SpectraMax 250 instrument (Molecular Devices, Inc.). EC50 values are determined by a curve-fit program (SoftMax Pro) using the following formula:
FXa Chromogenic Assay (absence of plasma). Human antithrombin was mixed with an anticoagulant (a LMWH or fondaparinux); final concentrations were 0.1 μg/mL for the LMWHs and 0.02 μg/mL for fondaparinux. […] Absorbance was read every 30 seconds over a 4 minute period in a SpectraMax 250 instrument (Molecular Devices Inc.™) The slope of absorbance vs time was calculated for each compound concentration. EC50 values were determined using a curve fit program (GraphPad Prism 5).

[3] = system: enoxaparin (ENOX); assay: FXa chromogenic assay (absence of plasma), enoxaparin; conditions: enoxaparin 0.1 μg/mL, absence of plasma

Row | Compound | UFH (aPTT) EC50 [1] [µg/mL] | FONDAPX (FXa) EC50 [2] | ENOX (FXa) EC50 [3] [µg/mL]
1 | COc1ccc(NC(=O)[C@@H](CCCNC(=N)N)NC(=O)c2cc(NC(=O)[C@@H](CCCNC(=N)N)NC(=O)c3cccc(NC(=O)[C@@H](CCCNC(=N)N)NC(=O)c4cc(NC(=O)[C@H](N)CCCNC(=N)N)ccc4OC)c3)ccc2OC)cc1C(N)=O [Compound 69] | 1.58 | 2.74 µg/mL | 0.19
2 | COc1ccc(NC(=O)[C@H](N)CCCNC(=N)N)cc1C(=O)N[C@H](CCCNC(=N)N)C(=O)Nc1ccc(OC)c(C(=O)N[C@H](CCCNC(=N)N)C(=O)Nc2ccc(OC)c(C(=O)N[C@H](CCCNC(=N)N)C(=O)Nc3cccc(C(N)=O)c3)c2)c1 [Compound 67] | 1.75 | 5.19 µg/mL | 0.33
3 | COc1ccc(NC(=O)[C@H](CCCNC(N)=O)NC(=O)c2cc(NC(=O)[C@H](CCCCN)NC(=O)c3cc(NC(=O)[C@H](CCCCN)NC(=O)c4cc(NC(=O)[C@@H](N)CCCCN)ccc4OC)ccc3OC)ccc2OC)cc1C(N)=O [Compound 140] | 2.52 | 4.636 µg/mL | 0.4309
4 | COc1ccc(NC(=O)[C@H](CCCCN)NC(=O)c2cc(NC(=O)[C@H](CCCCN)NC(=O)c3cc(NC(=O)[C@H](CCCCN)NC(=O)c4c[nH]c5ccccc45)ccc3OC)ccc2OC)cc1C(N)=O [Compound 100] | 7.13 | 2.482 µg/mL | 1.12
5 | COc1ccc(NC(=O)[C@H](CCCCN)NC(=O)c2cc(NC(=O)[C@@H](N)CCCCN)ccc2OC)cc1C(=O)N[C@@H](CCCCN)C(=O)Nc1ccc(OC)c(C(=O)N[C@@H](CCCCN)C(=O)Nc2ccc(OC)c(C(=O)N[C@H](C)C(=O)O)c2)c1 [Compound 146] | 2.74 | 19.030 µg/mL | 1.027
6 | COc1ccc(NC(=O)[C@H](CCCNC(=N)N)NC(=O)c2cc(NC(=O)[C@H](CCCNC(=N)N)NC(=O)c3cc(NC(=O)[C@H](CCCNC(=N)N)NC(=O)c4cc(NC(=O)[C@@H](N)CCCNC(=N)N)ccc4OC)ccc3OC)ccc2OC)cc1C(N)=O [Compound 45] | 2.35 | 2.61 µg/mL | 0.23
7 | N=C(N)NCCCCC(=O)Nc1cc(C(F)(F)F)cc(NC(=O)c2ccc(C(=O)Nc3cc(C(F)(F)F)cc(NC(=O)CCCCNC(=N)N)c3SCCN)cc2)c1SCCN [Compound 87] | >10 | 15.91 µg/mL | 6.35
8 | COc1ccc(NC(=O)[C@H](CCCCN)NC(=O)c2cc(NC(=O)[C@H](CCCCN)NC(=O)c3cc(NC(=O)[C@H](CCCCN)NC(=O)c4cc(NC(=O)[C@H](CCCCN)NC(C)=O)ccc4OC)ccc3OC)ccc2OC)cc1C(N)=O [Compound 28] | 2.28 | 3.21 µg/mL | 0.23
9 | COc1ccc(NC(=O)[C@H](CCCCN)NC(=O)c2cc(NC(=O)[C@H](CCCCN)NC(=O)c3cc(NC(=O)[C@H](CCCCN)NC(=O)c4cc(NC(=O)[C@H](C)N)ccc4OC)ccc3OC)ccc2OC)cc1C(N)=O [Compound 95] | 2.42 | 5.277 µg/mL | 0.5734
10 | COc1ccc(NC(=O)[C@H](CCCNC(=N)N)NC(=O)c2cc(NC(=O)[C@@H](N)CCCNC(=N)N)ccc2OC)cc1C(=O)N[C@@H](CCCNC(=N)N)C(=O)Nc1ccc(OC)c(C(=O)N[C@@H](CCCNC(=N)N)C(=O)Nc2ccc(OC)c(C(=O)N3CCCC3C(N)=O)c2)c1 (stereo partly drawn) [Compound 123] | >10 | inactive | 1.934
11 | COc1ccc(C(=O)N[C@@H](CCCCN)C(=O)Nc2ccc(OC)c(C(=O)N[C@@H](CCCCN)C(=O)Nc3ccc(OC)c(C(=O)N[C@@H](CCCCN)C(=O)Nc4ccc(OC)c(C(N)=O)c4)c3)c2)cc1NC(=O)[C@@H](N)CCCCN [Compound 99] | 1.54 | 6.132 µg/mL | 0.2998
12 | CN(C)CCNC(=O)c1cc(C(=O)N[C@H]2CC[C@H](NC(=O)c3cc(C(=O)NCCN(C)C)c(OCCCCCN)cc3OCCCCCN)CC2)c(OCCCCCN)cc1OCCCCCN [Compound 5] | 19.76 | inactive | 23.71
13 | COC(=O)c1cc(NC(=O)[C@H](CCCCN)NC(=O)c2cc(NC(=O)[C@H](CCCCN)NC(=O)c3cc(NC(=O)[C@H](CCCCN)NC(=O)c4cc(NC(=O)[C@@H](N)CCCCN)ccc4OC)ccc3OC)ccc2OC)ccc1OC [Compound 115] | 2.44 | >20 µg/mL | 0.7967
14 | COc1ccc(NC(=O)[C@@H](CCCNC(=N)N)NC(=O)c2cc(NC(=O)[C@@H](CCCNC(=N)N)NC(=O)c3cc(NC(=O)[C@@H](CCCNC(=N)N)NC(=O)c4cc(NC(=O)[C@@H](C)NC(=O)CCCCNC(=N)N)ccc4OC)ccc3OC)ccc2OC)cc1C(N)=O [Compound 49] | 1.42 | 1.03 µg/mL | 0.16
15 | COc1ccc(NC(=O)[C@@H](CCCNC(=N)N)NC(=O)CCCCNC(=N)N)cc1C(=O)N[C@H](CCCNC(=N)N)C(=O)Nc1ccc(OC)c(C(=O)N[C@H](CCCNC(=N)N)C(=O)Nc2ccc(OC)c(C(=O)N[C@H](CCCNC(=N)N)C(=O)Nc3ccc(OCCNC(=N)N)c(C(N)=O)c3)c2)c1 [Compound 27] | 2.19 | 2.51 µg/mL | 0.10
16 | COc1ccc(NC(=O)[C@H](CCCCN)NC(=O)c2cc(NC(=O)[C@H](CCCCN)NC(=O)c3cc(NC(=O)[C@H](CCCCN)NC(=O)c4cc(NC(=O)[C@@H](N)CCCCN)ccc4OC)ccc3OC)ccc2OC)cc1C(N)=O [Compound 90] | 0.9713 | 0.272 µg/mL | 0.093
17 | COc1ccc(NC(=O)[C@H](CCCCN)NC(=O)c2cc(NC(=O)[C@H](CCCCN)NC(=O)c3cc(NC(=O)[C@H](CCCCN)NC(=O)c4cc(NC(=O)[C@@H](N)CCCCN)ccc4OC)ccc3OC)ccc2OC)cc1C(=O)N[C@@H](Cc1c[nH]c2ccccc12)C(=O)O [Compound 113] | 4.89 | 0.4025 µg/mL | 0.2306
